Each structure is given as a SMILES string.

Experiment [1] deals with MDA-MB-468 breast cancer cells. As to the kind of experiment: Cell growth inhibition, Sulforhodamine B assay, MDA-MB-468. In kind it is cell-based. The following applies: Homo sapiens, 120 h, 5 days culture, SRB assay, read-out: Cell Line GI50 Range MDA-MB-468. In general terms: Sulforhodamine B stains cellular protein and so reports cell mass.
Experiment [2] concerns PA-1 ovarian cancer cells. As to the kind of experiment: Cell growth inhibition, Sulforhodamine B assay, PA-1. In kind it is cell-based. To be noted: 120 h, 5 days culture, SRB assay, read-out: Cell Line GI50 Range PA-1.
The subject of experiment [3] is MDA-MB-231 breast cancer cells. Briefly: Cell growth inhibition, Sulforhodamine B assay, MDA-MB-231. In kind it is cell-based. To be noted: Homo sapiens, 120 h, 5 days culture, SRB assay, read-out: Cell Line GI50 Range MDA-MB-231.
Experiment [4] deals with HCT116 colon cancer cells. Briefly: Cell growth inhibition, Sulforhodamine B assay, HCT116. The experiment is classed as cell-based. The following applies: Homo sapiens, HCT-116, 120 h, 5 days culture, SRB assay, read-out: Cell Line GI50 Range HCT116.
The next experiment has as its target T1, human PLK4 (Homo sapiens, UniProt O00444).
T1 construct: amino terminal GST fusion of residues 1-391 of human PLK4; made in house; host or cells: E. coli
T1 sequence (O00444 1-391): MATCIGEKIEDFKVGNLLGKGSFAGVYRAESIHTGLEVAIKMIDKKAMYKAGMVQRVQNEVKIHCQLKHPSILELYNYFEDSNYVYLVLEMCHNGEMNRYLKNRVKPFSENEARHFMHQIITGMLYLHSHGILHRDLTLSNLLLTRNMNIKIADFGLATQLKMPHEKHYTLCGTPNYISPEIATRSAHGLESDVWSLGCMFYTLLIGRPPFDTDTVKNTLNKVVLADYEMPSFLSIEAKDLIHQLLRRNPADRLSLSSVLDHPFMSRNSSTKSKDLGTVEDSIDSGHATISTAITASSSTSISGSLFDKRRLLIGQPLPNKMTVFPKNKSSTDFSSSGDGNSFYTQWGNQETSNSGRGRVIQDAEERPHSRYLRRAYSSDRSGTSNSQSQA
As to the kind of experiment: PLK4 inhibition assay (indirect ELISA). In kind it is biochemical. The following applies: GST-PLK4 4 nM, 15 μM ATP; read-out: IC50 Ranges PLK4. The method, boiled down: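 Compounds were tested either at a single 10 μM dose or across 10-point titrations (typically 0.5 to 0.001 μM), preincubated 15 min with 4 nM GST-PLK4 (human 1-391, dephosphorylated) before 15 μM ATP was added. MBP substrate phosphorylation over 30 min, pH 7.5 HEPES/MgCl2 buffer, read by HRP/TMB ELISA (450 nm). % inhibition vs. high-activity control; IC50 by logistic fit.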
(An ELISA detects its analyte on a solid surface through an enzyme-linked reagent.)

The target in another experiment is T2, Aurora B (Homo sapiens, UniProt Q96GD4).
T2 construct: purchased Invitrogen PV3970
T2 sequence (Q96GD4 whole entry): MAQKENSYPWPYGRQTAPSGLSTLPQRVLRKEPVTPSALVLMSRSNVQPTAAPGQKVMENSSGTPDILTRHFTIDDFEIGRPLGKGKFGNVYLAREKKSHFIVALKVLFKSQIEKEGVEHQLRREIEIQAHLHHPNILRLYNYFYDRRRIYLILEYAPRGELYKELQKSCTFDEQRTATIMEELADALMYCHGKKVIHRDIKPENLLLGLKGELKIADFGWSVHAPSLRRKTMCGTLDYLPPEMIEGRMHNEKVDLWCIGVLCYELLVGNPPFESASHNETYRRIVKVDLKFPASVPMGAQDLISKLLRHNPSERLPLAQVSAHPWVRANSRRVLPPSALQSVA
Briefly: Aurora B inhibition assay (Z-Lyte). The following applies: 28 nM Aurora B, 128 μM ATP; read-out: IC50 Ranges Aurora B. In kind it is biochemical. As to the method:
Aurora B inhibition was determined using the Z-Lyte assay kit from Invitrogen. The assay was performed using the recommended manufacturer's instructions with 128 μM ATP and 28 nM Aurora B (Invitrogen cat #PV3970). The % inhibition values were determined according to the manufacturer's directions and IC50 values were obtained using a non-linear 4 point logistic curve fit (XLfit4, IDBS)

Another experiment concerns the target T3, human TTK (Homo sapiens, UniProt P33981).
T3 construct: amino terminal GST fusion of full length human TTK; purchased Invitrogen
T3 sequence (P33981 1-857): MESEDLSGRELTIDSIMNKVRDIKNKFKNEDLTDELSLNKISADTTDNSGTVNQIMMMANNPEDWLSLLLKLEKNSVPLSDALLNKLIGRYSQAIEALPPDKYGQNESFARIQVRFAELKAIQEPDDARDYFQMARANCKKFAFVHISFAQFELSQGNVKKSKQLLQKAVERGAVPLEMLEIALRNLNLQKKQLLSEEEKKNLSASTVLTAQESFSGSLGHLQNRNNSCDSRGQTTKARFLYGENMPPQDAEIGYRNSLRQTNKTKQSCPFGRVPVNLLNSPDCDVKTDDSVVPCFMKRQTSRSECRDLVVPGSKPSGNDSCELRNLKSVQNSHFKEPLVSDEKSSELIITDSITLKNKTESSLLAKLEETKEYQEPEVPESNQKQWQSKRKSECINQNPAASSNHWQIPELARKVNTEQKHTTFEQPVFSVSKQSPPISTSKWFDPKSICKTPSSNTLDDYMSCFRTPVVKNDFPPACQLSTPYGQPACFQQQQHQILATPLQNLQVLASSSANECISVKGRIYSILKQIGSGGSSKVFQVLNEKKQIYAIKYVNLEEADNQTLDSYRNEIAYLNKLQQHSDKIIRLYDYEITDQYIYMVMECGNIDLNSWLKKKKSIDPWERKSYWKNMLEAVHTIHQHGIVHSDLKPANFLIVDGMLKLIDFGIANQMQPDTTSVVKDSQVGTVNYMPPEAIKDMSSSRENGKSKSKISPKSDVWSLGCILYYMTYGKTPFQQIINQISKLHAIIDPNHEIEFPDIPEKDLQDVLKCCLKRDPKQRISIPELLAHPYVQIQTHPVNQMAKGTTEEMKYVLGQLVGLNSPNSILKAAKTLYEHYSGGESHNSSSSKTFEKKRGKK
As to the kind of experiment: TTK inhibition assay (indirect ELISA). The experiment is classed as biochemical. The following applies: GST-TTK 0.68 nM, 16 μM ATP; read-out: IC50 Ranges TTK.

The next experiment relates to HT29 colon cancer cells. As to the kind of experiment: Cell growth inhibition, Sulforhodamine B assay, HT29. In kind it is cell-based. The following applies: Homo sapiens, HT-29, 120 h, 5 days culture, SRB assay, read-out: Cell Line GI50 Range HT29.
Experiment [5] relates to OVCAR-3 ovarian cancer cells. As to the kind of experiment: Cell growth inhibition, Sulforhodamine B assay, OVCAR-3. The experiment is classed as cell-based. The following applies: Homo sapiens, 120 h, 5 days culture, SRB assay, read-out: Cell Line GI50 Range OVCAR-3.
Experimental: Breast cancer cells (MDA-MB-231, MDA-MB-468), colon cancer cells (HCT116, HT29) and ovarian cancer cells (PA-1, OVCAR-3) were seeded (1000 to 4000 in 80 μl per well depending on the cell growth rate) into 96 well plates 24 hours before compound overlay. Compounds were prepared as 10 mM stock solutions in 100% DMSO which were diluted with DMEM (Dulbecco's Modified Eagle's Medium) cell growth Medium (Invitrogen, Burlington, ON, Canada) containing 10% FBS (Fetal Bovine Serum) to concentrations ranging from 50 nM to 250 μM. Aliquots (20 μl) from each concentration were overlaid to 80 μl of the pre-seeded cells in the 96 well plates to make final concentrations of 10 nM to 50 μM. The cells were cultured for 5 days before the Sulforhodamine B assay (SRB) was performed to determine the compound's cell growth inhibition activity.
Sulforhodamine B (purchased from Sigma, Oakville, ON, Canada) is a water-soluble dye that binds to the basic amino acids of the cellular proteins. Thus, colorimetric measurement of the bound dye provides an estimate of the total protein mass that is related to the cell number. the cells are fixed in situ by gently aspirating off the culture media and adding 50 μl ice cold 10% Trichloroacetic Acid (TCA) per well and incubate at 4° C. for 30-60 min, The plates are washed with water five times and allowed to air dry for 5 min. Addition of 50 μl 0.4% (w/v) SRB solution in 1% (v/v) acetic acid to each well and incubatation for 30 min at RT completes the staining reaction. Following staining, plates are washed four times with 1% acetic acid to remove unbound dye and then allowed to air dry for 5 min. The stain is solubilized with 100 μl of 10 mM Tris pH 10.5 per well. Absorbance is read at 570 nm.
The percentage (%) of relative growth inhibition was calculated by comparing to DMSO treated only cells (100%). […] The GI50 was calculated using GraphPad PRISM software (GraphPad Software, Inc., San Diego, Calif., USA).

Experimental for human TTK: Active TTK was purchased from Invitrogen as an amino terminal GST fusion of full length human TTK.
TTK activity was measured using an indirect ELISA detection system. GST-TTK (0.68 nM) was incubated in the presence of 16 μM ATP (Sigma cat#A7699), 50 mM Hepes pH 7.2, 1 mM EGTA, 10 mM MgCl2, and 0.1% Pluronic in a 96 well microtitre plate pre-coated with amino terminal 6 histidine, sumo tagged TTK (amino acid residues 1-275). The reaction was allowed to proceed for 30 minutes, followed by 5 washes of the plate with Wash Buffer (phosphate buffered saline supplemented with 0.2% Tween 20), and incubation for 30 minutes with a 1:3000 dilution of primary antibody (Cell Signaling cat#9381). The plate was washed 5 times with Wash Buffer, incubated for 30 minutes in the presence of secondary antibody coupled to horse radish peroxidase (BioRad cat#1721019, 1:3000 concentration), washed an additional 5 times with Wash Buffer, and incubated in the presence of TMB substrate (Sigma cat#T0440). The colourimetric reaction was allowed to continue for 5 minutes, followed by addition of stop solution (0.5 N sulphuric acid), and quantified by detection at 450 nm with either a monochromatic or filter based plate reader (Molecular Devices M5 or Beckman DTX880, respectively).
Compounds were pre-incubated in the presence of enzyme for 5 minutes prior to addition of ATP and the activity remaining quantified using the above described activity assay. The % Inhibition of a compound was determined using the following formula; % Inhibition=100×(1−(experimental value−background value)/(high activity control−background value)). The IC50 value was determined using a non-linear 4 point logistic curve fit (XLfit4, IDBS) with the formula; (A+(B/(1+((x/C)̂D)))), where A=background value, B=range, C=inflection point, D=curve fit parameter.

For orientation: GI50 means the concentration that inhibits growth by half. A word on the IC50: it is the concentration at which inhibition is half-maximal. With `CN1CCC(Oc2ccc(-c3n[nH]c4ccc(NC(=O)C(c5ccsc5)N5CCCC5)cc34)cc2N(C)C)CC1` (stereo not drawn) [Example A113, N-(3-(3-(dimethylamino)-4-((1-methylpiperidin-4-yl)oxy)phenyl)-1H-indazol-5-yl)-2-(pyrrolidin-1-yl)-2-(thiophen-3-yl)acetamide], the GI50 (in [1]; in [2]; in experiment [3]; in experiment [4]; in the experiment with HT29 colon cancer cells; in [5]) was at most 5 µM in each case. In addition, the half-inhibitory concentration (IC50) at human PLK4, at Aurora B and at human TTK was at most 5 µM throughout.

`CCc1cccc(CC)c1NC(=O)Nc1ccc2[nH]nc(-c3ccc(C4CN(C)CCO4)cc3)c2c1` (stereo not drawn) [Example A124, 1-(2,6-diethylphenyl)-3-(3-(4-(4-methylmorpholin-2-yl)phenyl)-1H-indazol-5-yl)urea]: the concentration for 50% growth inhibition (GI50) was at most 5 µM in experiment [1]; at most 5 µM in [2]; at most 5 µM in experiment [3]; at most 5 µM in experiment [4]; at most 5 µM with HT29 colon cancer cells; 20 to 50 µM in [5]. In addition, the IC50 at human PLK4, at Aurora B and on human TTK was at most 5 µM each time.

As for `CN1CCC(Oc2ccc(-c3n[nH]c4ccc(C(=O)N[C@@H](CCO)c5ccccc5)cc34)cc2)CC1` [Example A125, (S)—N-(3-hydroxy-1-phenylpropyl)-3-(4-((1-methylpiperidin-4-yl)oxy)phenyl)-1H-indazole-5-carboxamide], the GI50 (in [1]; in experiment [2]; in [3]; in [4]; with HT29 colon cancer cells; in experiment [5]) was at most 5 µM throughout. In addition, the IC50 at human PLK4, on Aurora B and on human TTK was at most 5 µM each time.

Take `O=CN1CCC(Oc2ccc(-c3n[nH]c4ccc(C(=O)NC(c5ccccc5)C5CC5)cc34)cc2)CC1` (stereo not drawn) [Example A126, N-(cyclopropyl(phenyl)methyl)-3-(4-((1-formylpiperidin-4-yl)oxy)phenyl)-1H-indazole-5-carboxamide]: the 50% growth inhibitory concentration (GI50) (in experiment [1]; in [2]; in experiment [3]; in experiment [4]; in the experiment on HT29 colon cancer cells; in [5]) was at most 5 µM throughout. Also, the half-inhibitory concentration (IC50) on human PLK4, at Aurora B and at human TTK was at most 5 µM throughout.

With `CN1CCOC(c2ccc(-c3n[nH]c4ccc(C(=O)NC(c5ccccc5)C5CC5)cc34)cc2)C1` (stereo not drawn) [Example A139, N-(cyclopropyl(phenyl)methyl)-3-(4-(4-methylmorpholin-2-yl)phenyl)-1H-indazole-5-carboxamide], the GI50 (in experiment [1]; in [2]; in experiment [3]; in experiment [4]; in the experiment with HT29 colon cancer cells; in experiment [5]) was at most 5 µM in each case. Besides, the IC50 at human PLK4, at Aurora B and on human TTK was at most 5 µM throughout.

For `Cc1ccccc1C(NC(=O)c1ccc2[nH]nc(-c3ccc(OC4CCN(C)CC4)cc3)c2c1)C(C)C` (stereo not drawn) [Example A143, N-(2-methyl-1-(o-tolyl)propyl)-3-(4-((1-methylpiperidin-4-yl)oxy)phenyl)-1H-indazole-5-carboxamide], the GI50 (in [1]; in [2]; in experiment [3]; in experiment [4]; with HT29 colon cancer cells; in experiment [5]) was at most 5 µM throughout. In addition, the IC50 at human PLK4, at Aurora B and on human TTK was at most 5 µM each time.

`CN1CCC(Oc2ccc(-c3n[nH]c4ccc(NC(=O)C(c5ccccc5)C5CCCC5)cc34)cc2)CC1` (stereo not drawn) [Example A148, 2-cyclopentyl-N-(3-(4-((1-methylpiperidin-4-yl)oxy)phenyl)-1H-indazol-5-yl)-2-phenylacetamide]: the 50% growth inhibitory concentration (GI50) (in experiment [1]; in experiment [2]; in [3]; in experiment [4]; in the experiment with HT29 colon cancer cells; in experiment [5]) was at most 5 µM in each case. Also, the IC50 at human PLK4, on Aurora B and at human TTK was at most 5 µM each time.

As for `CCC(NC(=O)c1ccc2[nH]nc(-c3ccc(OC4CCN(CCOC)CC4)cc3)c2c1)c1ccccc1` (stereo not drawn) [Example A153, 3-(4-((1-(2-methoxyethyl)piperidin-4-yl)oxy)phenyl)-N-(1-phenylpropyl)-1H-indazole-5-carboxamide], the concentration for 50% growth inhibition (GI50) (in [1]; in [2]; in [3]; in [4]; with HT29 colon cancer cells; in experiment [5]) was at most 5 µM throughout. Also, the IC50 at human PLK4, on Aurora B and at human TTK was at most 5 µM each time.

Turning to `COCCN1CCC(Oc2ccc(-c3n[nH]c4ccc(C(=O)NC(c5ccsc5)C5CCCC5)cc34)cc2)CC1` (stereo not drawn) [Example A155, N-(cyclopentyl(thiophen-3-yl)methyl)-3-(4-((1-(2-methoxyethyl)piperidin-4-yl)oxy)phenyl)-1H-indazole-5-carboxamide], the GI50 (in experiment [1]; in [2]; in experiment [3]; in [4]; with HT29 colon cancer cells; in [5]) was at most 5 µM throughout. For the same compound, the concentration for half-maximal inhibition (IC50) at human PLK4, on Aurora B and at human TTK was at most 5 µM in each case.

`CN(C)C(=O)CN1CCC(Oc2ccc(-c3n[nH]c4ccc(C(=O)NC(c5ccccc5)C5CC5)cc34)cc2)CC1` (stereo not drawn) [Example A158, N-(cyclopropyl(phenyl)methyl)-3-(4-((1-(2-(dimethylamino)-2-oxoethyl)piperidin-4-yl)oxy)phenyl)-1H-indazole-5-carboxamide]: the GI50 (in experiment [1]; in experiment [2]; in [3]; in [4]; in the experiment on HT29 colon cancer cells; in [5]) was at most 5 µM in each case. Besides, the IC50 on human PLK4, at Aurora B and at human TTK was at most 5 µM throughout.

The record behind these values is patent US20140051679A1, “KINASE INHIBITORS AND METHOD OF TREATING CANCER WITH SAME” (UNIVERISTY HEALTH NETWORKS, priority 2011, published 2014).
